Source: patent publication US9353150B2, “Substituted pyrazino[1′,2′:1 ,5]pyrrolo[2,3-b]-indole-1,4-diones for cancer treatment” (Massachusetts Institute of Technology, priority 2012, dated 2016)
“Also recorded” adds a separate entry of the source. Where two headings read alike, the source gives them in different places.

Assays:
[1] = system: U-937 (hystiocytic lymphoma); assay: 72-hour IC50 determination for non-adherent cells using MTS; assay type: cell-based, human
Method: (§1) Certain synthesized compounds were screened for their ability to induce death in two human cancer cell lines: U-937 (leukemic monocyte lymphoma) and HeLa (cervical cancer).
(§2) Cells were grown in media supplemented with fetal bovine serum (FBS) and antibiotics ([…]). Specifically, experiments were performed using the following cell lines and media compositions: U-937, HeLa, H460, and 786-O (RPMI-1640+10% FBS), and MCF7 (EMEM+10% FBS). Cells were incubated at 37° C. in a 5% CO2, 95% humidity atmosphere.
(§3) In a 96-well plate, compounds were pre-added as DMSO stocks in triplicate to achieve a final concentration of 1%. DMSO and cell-free wells served as the live and dead control, respectively. U-937 (5,000 cells/well) cells were distributed in 100 μL media to the compound-containing plate. After 72 hours, cell viability was assessed by adding 20 μL of a PMS/MTS solution (Cory, A. H.; Owen, T. C.; Barltrop, J. A.; Cory, J. G. Cancer Commun. 1991, 3, 207) to each well, allowing the dye to develop at 37° C. until the live control had processed MTS, and reading the absorbance at λ=490 nm. IC50 values were determined from three or more independent experiments using TableCurve (San Jose, Calif.).

H460 (lung carcinoma) = assay: 72-hour IC50 determination for adherent cells using sulforhodamine B (SRB); assay type: cell-based, human; settings: error is standard deviation of the mean, n ≧ 3, read-out: H460, 72-hour IC50 (Table E1-2)
Method: (§4) Certain provided compounds were tested in culture against a panel of three supplementary human cancer cell lines representing three additional tumor histologies (H460, lung carcinoma; 786-O, renal carcinoma; MCF-7, breast carcinoma). As shown in Table E1-2, the ETPs retain their potency across the cell lines. In some embodiments, a provided compound is active in all cell lines. In some embodiments, a provide compound can be used to selectively target certain cells and/or cancers. […] Without the intention to be limited, Applicant notes that certain cell lines could be more sensitive to provided compounds; for example, U-937 and HeLa are slightly more sensitive to the ETPs than the other three cell lines.
as §2
(§5) Adherent cells (HeLa, H460, 786-O, and MCF7) were added into 96-well plates (5,000 cells/well for HeLa cell line; 2,000 cells/well for H460, 786-O, and MCF7 cell lines) in 100 μL media and were allowed to adhere for 2-3 hours. Compounds were solubilized in DMSO as 100× stocks, added directly to the cells (100 μL final volume), and tested over a range of concentrations in triplicate (1% DMSO final) on a half-log scale. Concentrations tested ranged from […] to 10 μM, depending on the potency of the compound. DMSO and cell-free wells served as the live and dead control, respectively. After 72 hours of continuous exposure, the plates were evaluated using the SRB colorimetric assay as described previously (Vichai, V.; Kirtikara, K. Nature Prot. 2006, 1, 1112). Briefly, media was removed from the plate, and cells were fixed by the addition of 100 μL cold 10% trichloroacetic acid in water. After incubating at 4° C. for an hour, the plates were washed in water and allowed to dry. Sulforhodamine B was added as a 0.057% solution in 1% acetic acid (100 μL), and the plates were incubated at room temperature for 30 minutes, washed in 1% acetic acid, and allowed to dry. The dye was solubilized by adding 10 mM Tris base solution (pH 10.5, 200 μL) and incubating at room temperature for 30 minutes. Plates were read at λ=510 nm. IC50 values were determined from three or more independent experiments using TableCurve (San Jose, Calif.).

MCF-7 (breast carcinoma) = assay: as above; assay type: cell-based, human; settings: error is standard deviation of the mean, n ≧ 3, read-out: MCF-7, 72-hour IC50 (Table E1-2)
Method: as §4, §2, §5

786-O (renal carcinoma) = assay: as above; assay type: cell-based, human; settings: error is standard deviation of the mean, n ≧ 3, read-out: 786-O, 72-hour IC50 (Table E1-2)
Method: as §4, §2, §5

human cancer cell lines = assay: Anticancer activity in human cancer cell lines, not tied to one cell line; assay type: cell-based; settings: for anticancer activity, in words: human cancer cell lines, 72-hour exposure
Method: as §1, §4, §5, §3

[2] = system: HeLa (cervical carcinoma); assay: 72-hour IC50 determination for adherent cells using sulforhodamine B (SRB); assay type: cell-based, human
Method: as §1, §2, §5

[3] = 72-hour exposure, MTS, error is standard deviation of the mean, n ≧ 3, read-out: U-937, 72-hour IC50 (Table E1-1)
[4] = 72-hour exposure, MTS, error is standard deviation of the mean, n ≧ 3, read-out: U-937, 72-hour IC50 (Table E1-2)
[5] = 72-hour exposure, SRB, error is standard deviation of the mean, n ≧ 3, read-out: HeLa, 72-hour IC50 (Table E1-1)
[6] = 72-hour exposure, SRB, error is standard deviation of the mean, n ≧ 3, read-out: HeLa, 72-hour IC50 (Table E1-2)
[7] = Homo sapiens, U-937, 72-hour exposure, MTS, error is standard deviation of the mean, n ≧ 3, read-out: U-937, 72-hour IC50 (Table E1-1)
[8] = Homo sapiens, U-937, 72-hour exposure, MTS, error is standard deviation of the mean, n ≧ 3, read-out: U-937, 72-hour IC50 (Table E1-2)
[9] = Homo sapiens, NCI-H460, 72-hour exposure
[10] = Homo sapiens, MCF7, 72-hour exposure
[11] = Homo sapiens, 786-0, 72-hour exposure
[12] = Homo sapiens, HeLa, 72-hour exposure, SRB, error is standard deviation of the mean, n ≧ 3, read-out: HeLa, 72-hour IC50 (Table E1-1)
[13] = Homo sapiens, HeLa, 72-hour exposure, SRB, error is standard deviation of the mean, n ≧ 3, read-out: HeLa, 72-hour IC50 (Table E1-2)
[14] = Homo sapiens, U-937, 72 h, read-out: U-937, 72-hour IC50 (Table E1-1)
[15] = Homo sapiens, HeLa, 72 h, read-out: HeLa, 72-hour IC50 (Table E1-1)

Row | Compound | IC50 [1, 3] | IC50 [1, 4] | IC50 (H460 (lung carcinoma); 72-hour exposure) | IC50 (MCF-7 (breast carcinoma); 72-hour exposure) | IC50 (786-O (renal carcinoma); 72-hour exposure) | anticancer activity, in words (human cancer cell lines) | IC50 [2, 5] | IC50 [2, 6] | IC50 [1, 7] | IC50 [2, 12] | also measured
1 | CN1C(=O)[C@]23C[C@]4(F)c5ccccc5N(S(=O)(=O)c5ccccc5)[C@@H]4N2C(=O)[C@H]1SS3 [Compound 35, C3-Fluoro epidithiodiketopiperazines] | 21.3 ± 8.7 nM | 21.3 ± 8.7 nM | 123 ± 50 nM | 93 ± 34 nM | 64 ± 20 nM | intermediately good activity | 56 ± 21 nM | 56 ± 21 nM | – | – | –
2 | CN1C(=O)[C@@]23C[C@]4([C@]56C[C@@]78SSSS[C@@](CO)(C(=O)N7[C@H]5Nc5ccccc56)N(C)C8=O)c5ccccc5N[C@@H]4N2C(=O)[C@]1(CO)SSSS3 [Compound 6, (+)-12,12′-dideoxychetracin A] | – | – | – | – | – | active across the board | – | – | 1.3 ± 0.5 nM | 5.6 ± 1 nM | IC50 [1, 8]: 1.3 ± 0.5 nM; IC50 ([1]; Homo sapiens, U-937, 72-hour exposure, read-out: IC50 (U-937)): 0.75 to 1.3 nM; IC50 (H460 (lung carcinoma); [9]): 39.3 ± 41 nM; IC50 (MCF-7 (breast carcinoma); [10]): 22.5 ± 6 nM; IC50 (786-O (renal carcinoma); [11]): 16 ± 2.4 nM; IC50 [2, 13]: 5.6 ± 1 nM; IC50 ([2]; Homo sapiens, HeLa, 72-hour exposure, read-out: IC50 (HeLa)): 5.6 to 6.9 nM
3 | CN1C(=O)C23CC4(C56CC78SC(=S)S[C@](C)(C(=O)N7[C@H]5N(S(=O)(=O)c5ccccc5)c5ccccc56)N(C)C8=O)c5ccccc5N(S(=O)(=O)c5ccccc5)[C@@H]4N2C(=O)[C@@]1(C)SC(=S)S3 (stereo partly shown) [Compound 18, Dimeric bisdithiepanethione] | – | – | – | – | – | competent anticancer agents; also recorded: active across the board | – | – | 2.9 ± 2.1 nM | 1.1 ± 0.8 nM | IC50 [1, 8]: 2.9 ± 2.1 nM; IC50 (H460 (lung carcinoma); [9]): 18.5 ± 2.7 nM; IC50 (MCF-7 (breast carcinoma); [10]): 10.7 ± 8.1 nM; IC50 (786-O (renal carcinoma); [11]): 14.9 ± 4.4 nM; IC50 [2, 13]: 1.1 ± 0.8 nM
4 | CC(=O)OC[C@]12SSS[C@@]3(C[C@]4([C@]56C[C@@]78SSS[C@@](COC(C)=O)(C(=O)N7[C@H]5Nc5ccccc56)N(C)C8=O)c5ccccc5N[C@@H]4N3C1=O)C(=O)N2C [Compound 16] | 9.7 ± 2.1 nM | 9.7 ± 2.1 nM | 187 ± 79 nM | 263 ± 98 nM | 204 ± 40 nM | – | 70 ± 20 nM | 70 ± 20 nM | – | – | –
5 | CC(=O)OC[C@]12SSS[C@@]3(C[C@]4([C@]56C[C@@]78SSS[C@@](COC(C)=O)(C(=O)N7[C@H]5N(C(=O)C(F)(F)F)c5ccccc56)N(C)C8=O)c5ccccc5N(C(=O)C(F)(F)F)[C@@H]4N3C1=O)C(=O)N2C [Compound 17] | 8.9 ± 2.3 nM | 8.9 ± 2.3 nM | 179 ± 88 nM | > 333 nM | 189 ± 26 nM | – | 28.1 ± 2.2 nM | 28.1 ± 2.2 nM | – | – | –
6 | CN1C(=O)[C@]23C[C@]4(Br)c5ccccc5N(S(=O)(=O)c5ccccc5)[C@@H]4N2C(=O)[C@H]1SS3 [Compound 34, C3-Bromo epidithiodiketopiperazines] | 59 ± 23 nM | – | – | – | – | inactive | 550 ± 33 nM | – | – | – | –
7 | CCCC12CC34SSC(C)(C(=O)N3C1N(S(=O)(=O)c1ccccc1)c1ccccc12)N(C)C4=O (stereo not drawn) [Compound 61, β-C3-Propyl epidithiodiketopiperazine] | – | – | – | – | – | substantially lower potencies | – | – | – | – | IC50 [1, 14]: > 1000 nM; IC50 [2, 15]: > 1000 nM
8 | CCC[C@]12C[C@@]34SC(=S)S[C@@](C)(C(=O)N3C1N(S(=O)(=O)c1ccccc1)c1ccccc12)N(C)C4=O (stereo partly shown) [Compound 65, C3-Propyl dithiepanethiones] | – | – | – | – | – | substantially lower potencies | – | – | > 1000 nM | > 1000 nM | –
9 | CN1C(=O)C23CC4(c5c[nH]c6ccccc56)c5ccccc5N(S(=O)(=O)c5ccccc5)C4N2C(=O)C1(C)SC(=S)S3 (stereo not shown) [Compound 66, C3-(Indo-3′-v)dithiepanethiones] | > 1000 nM | – | – | – | – | inactive | > 1000 nM | – | – | – | –
10 | CCCC12CC34SSC(C)(C(=O)N3C1N(S(=O)(=O)c1ccccc1)c1ccccc12)N(C)C4=O (stereo not drawn) [Compound 63, α-C3-Propyl epidithiodiketopiperazine] | – | – | – | – | – | inactive | – | – | – | – | IC50 ([1]; read-out: U-937, 72-hour IC50 (Table E1-1), 72-hour exposure, MTS, error is standard deviation of the mean, n ≧ 3): > 1000 nM; IC50 ([2]; read-out: HeLa, 72-hour IC50 (Table E1-1), 72-hour exposure, SRB, error is standard deviation of the mean, n ≧ 3): > 1000 nM
11 | CN1C(=O)C23CC4(c5c[nH]c6ccccc56)c5ccccc5N(S(=O)(=O)c5ccccc5)[C@@H]4N2C(=O)[C@H]1SCS3 (stereo partly shown) [Compound 38, C3-(Indol-3′-yl)dithioacetal] | – | – | – | – | – | active | – | – | 82 ± 28 nM | 465 ± 37 nM | –
12 | CN1C(=O)[C@@]23C[C@]4(c5c[nH]c6ccccc56)c5ccccc5N(S(=O)(=O)c5ccccc5)[C@@H]4N2C(=O)[C@]1(C)SS3 [Compound 60, C3-(Indol-3′-yl) epidithiodiketopiperazines] | 56 ± 23 nM | 56 ± 23 nM | 165 ± 65 nM | 327 ± 36 nM | 907 ± 48 nM | – | 67 ± 11 nM | 67 ± 11 nM | – | – | –
13 | COCS[C@H]1C(=O)N2[C@H]3Nc4ccccc4[C@@]3(c3c[nH]c4ccccc34)C[C@]2(SCOC)C(=O)N1C [Compound 41, C3-(Indol-3′-yl)bis(S-MOM)ether] | – | – | – | – | – | – | – | – | > 10000 nM | > 10000 nM | IC50 (human cancer cell lines; Homo sapiens, cell line not named in the sentence (U-937 and HeLa screened), read-out: IC50 (did not display any anticancer activity)): > 10000 nM
14 | CN1C(=O)[C@@]23C[C@]4(c5c[nH]c6ccccc56)c5ccccc5N[C@@H]4N2C(=O)[C@@H]1SS3 [Compound 10, (+)-12-deoxybionectin A] | – | – | – | – | – | – | – | – | – | – | IC50 [1, 14]: 17.4 ± 1.1 nM; IC50 ([1]; Homo sapiens, U-937, 72 h, read-out: U-937, 72-hour IC50 (Table E1-2)): 17.4 ± 1.1 nM; IC50 (H460 (lung carcinoma); [9]): 215 ± 100 nM; IC50 (MCF-7 (breast carcinoma); [10]): 156 ± 18 nM; IC50 (786-O (renal carcinoma); [11]): 181 ± 26 nM; IC50 [2, 15]: 117 ± 26 nM; IC50 ([2]; Homo sapiens, HeLa, 72 h, read-out: HeLa, 72-hour IC50 (Table E1-2)): 117 ± 26 nM
15 | CC(=O)OC[C@]12SS[C@@]3(C[C@]4([C@]56C[C@@]78SS[C@@](COC(C)=O)(C(=O)N7[C@H]5Nc5ccccc56)N(C)C8=O)c5ccccc5N[C@@H]4N3C1=O)C(=O)N2C [Compound 15] | 4.7 ± 1.3 nM | 4.7 ± 1.3 nM | 140 ± 82 nM | 77 ± 36 nM | 95 ± 23 nM | – | 14.1 ± 7.4 nM | 14.1 ± 7.4 nM | – | – | –
